Experimental data: patent US20100099561A1, “HETEROBICYCLIC ALKYLTHIO-BRIDGED ISOXAZOLINES” (E.I. DU PONT DE NEMOURS AND COMPANY, priority 2008, published 2010)

Key:
Type in all cases: in vivo
[1] = test system: morningglory (Ipomoea spp.); test: Test A preemergence, morningglory; conditions: 0 to 100 scale (0 no effect, 100 complete control)
Procedure, shortened: (§1)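 Visual injury rating, 0 = no effect to 100 = complete control, made roughly ten days after treatment by comparison with untreated controls. Preemergence: directed soil spray onto freshly planted loam/sand. Postemergence: foliar application at one- to two-leaf stage, 2–10 cm height.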

[2] = test system: ragweed (common ragweed, Ambrosia elatior); test: Test B preemergence, ragweed; conditions: scale 0 to 100
Description: (§2) Seeds of plant species selected from blackgrass (Alopecurus myosuroides), downy bromegrass (Bromus tectorum), green foxtail (Setaria viridis), Italian ryegrass (Lolium multiflorum), wheat (Triticum aestivum), wild oat (Avena fatua), catchweed bedstraw (Galium aparine), bermudagrass (Cynodon dactylon), Surinam grass (Brachiaria decumbens), cocklebur (Xanthium strumarium), corn (Zea mays), large crabgrass (Digitaria sanguinalis), woolly cupgrass (Eriochloa villosa), giant foxtail (Setaria faberii), goosegrass (Eleusine indica), johnsongrass (Sorghum halepense), kochia (Kochia scoparia), lambsquarters (Chenopodium album), morningglory (Ipomoea coccinea), nightshade (eastern black nightshade, Solanum ptycanthum), yellow nutsedge (Cyperus esculentus), pigweed (Amaranthus retroflexus), ragweed (common ragweed, Ambrosia elatior), soybean (Glycine max), sunflower (common oilseed sunflower, Helianthus annuus), Russian thistle (Salsola kali), and velvetleaf (Abutilon theophrasti) were planted into a blend of loam soil and sand and treated preemergence with test compounds formulated in a non-phytotoxic solvent mixture which included a surfactant. Treated plants and controls were maintained in a greenhouse for 13 to 15 days, after which time all species were compared to controls and visually evaluated. Plant response ratings, summarized in Table B, are based on a scale of 0 to 100 where 0 is no effect and 100 is complete control. A dash (-) response means no test result.

rice (Oryza sativa) = test: Test B flooded paddy test, rice; conditions: Flood, scale 0 to 100
Procedure, shortened: (§3)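 Compounds were added directly to paddy water over 2-leaf-stage plants in pots flooded 3 cm above soil, water depth maintained. Visual injury scored against controls after 13 to 15 days in greenhouse, 0 (none) to 100 (complete control); dash indicates no result.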

[3] = test system: barnyardgrass (Echinochloa crus-galli); test: Test A postemergence, barnyardgrass; conditions: 0 to 100 scale (0 no effect, 100 complete control)
Procedure, shortened: as §1

[4] = test system: giant foxtail (Setaria faberii); test: Test B preemergence, giant foxtail; conditions: scale 0 to 100
Description: as §2

[5] = test system: wheat (Triticum aestivum); test: Test A preemergence, wheat; conditions: 0 to 100 scale (0 no effect, 100 complete control)
Procedure, shortened: as §1

[6] = test system: velvetleaf (Abutilon theophrasti); test: Test A preemergence, velvetleaf; conditions: 0 to 100 scale (0 no effect, 100 complete control)
Procedure, shortened: as §1

[7] = test system: yellow nutsedge (Cyperus esculentus); test: Test B preemergence, yellow nutsedge; conditions: scale 0 to 100
Description: as §2

[8] = test system: green foxtail (Setaria viridis); test: Test B preemergence, green foxtail; conditions: scale 0 to 100
Description: as §2

[9] = test system: velvetleaf (Abutilon theophrasti); test: Test B preemergence, velvetleaf; conditions: Preemergence, scale 0 to 100
Procedure, shortened: (§4)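 Preemergence soil application to seeded loam–sand mix; formulation: non-phytotoxic solvent + surfactant. Greenhouse, 13–15 d. Read-out: visual % control vs untreated, 0–100. Dash = not tested.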

[10] = test system: ducksalad (Heteranthera limosa); test: Test B flooded paddy test, ducksalad; conditions: Flood, scale 0 to 100
Procedure, shortened: as §3

[11] = test system: large crabgrass (Digitaria sanguinalis); test: Test A postemergence, large crabgrass; conditions: 0 to 100 scale (0 no effect, 100 complete control)
Procedure, shortened: as §1

[12] = test system: blackgrass (Alopecurus myosuroides); test: Test B preemergence, blackgrass; conditions: scale 0 to 100
Description: as §2

soybean (Glycine max) = test: Test B preemergence, soybean; conditions: Preemergence, scale 0 to 100
Procedure, shortened: as §4

wild oat (Avena fatua) = test: Test B preemergence, wild oat; conditions: scale 0 to 100
Description: as §2

corn (Zea mays) = test: Test B preemergence, corn; conditions: scale 0 to 100
Description: as §2

[13] = test system: giant foxtail (Setaria faberi); test: Test A preemergence, giant foxtail; conditions: 0 to 100 scale (0 no effect, 100 complete control)
Procedure, shortened: as §1

[14] = test system: goosegrass (Eleusine indica); test: Test B preemergence, goosegrass; conditions: scale 0 to 100
Description: as §2

[15] = test system: morningglory (Ipomoea coccinea); test: Test B preemergence, morningglory; conditions: scale 0 to 100
Description: as §2

SMILES: CC1(C)CC(S(=O)(=O)Cc2c(C(F)(F)F)nc3ccsn3c2=O)=NO1 [Compound 16]
- Plant response rating, Morningglory ([1]; 125 g ai/ha): 70
- Plant response rating, Morningglory ([1]; 500 g ai/ha): 80
- Plant response rating, Ragweed ([2]; 16 g ai/ha): 0
- Plant response rating, Ragweed ([2]; 31 g ai/ha): 0
- Plant response rating, Ragweed ([2]; 62 g ai/ha): 0
- Plant response rating, Ragweed ([2]; 125 g ai/ha): 0
- Plant response rating, Rice (rice (Oryza sativa); 62 g ai/ha): 0
- Plant response rating, Rice (rice (Oryza sativa); 250 g ai/ha): 0
- Plant response rating, Barnyardgrass ([3]; 125 g ai/ha): 80
- Plant response rating, Barnyardgrass ([3]; 500 g ai/ha): 90
- Plant response rating, Foxtail, Giant ([4]; 16 g ai/ha): 0
- Plant response rating, Foxtail, Giant ([4]; 31 g ai/ha): 80
- Plant response rating, Foxtail, Giant ([4]; 62 g ai/ha): 90
- Plant response rating, Foxtail, Giant ([4]; 125 g ai/ha): 98
- Plant response rating, Wheat ([5]; 125 g ai/ha): 0
- Plant response rating, Wheat ([5]; 500 g ai/ha): 0
- Plant response rating, Velvetleaf ([6]; 125 g ai/ha): 50
- Plant response rating, Velvetleaf ([6]; 500 g ai/ha): 60
- Plant response rating, Nutsedge, Yellow ([7]; 16 g ai/ha): 0
- Plant response rating, Nutsedge, Yellow ([7]; 31 g ai/ha): 0
- Plant response rating, Nutsedge, Yellow ([7]; 62 g ai/ha): 0
- Plant response rating, Nutsedge, Yellow ([7]; 125 g ai/ha): 0
- Plant response rating, Foxtail, Green ([8]; 16 g ai/ha): 0
- Plant response rating, Foxtail, Green ([8]; 31 g ai/ha): 20
- Plant response rating, Foxtail, Green ([8]; 62 g ai/ha): 85
- Plant response rating, Foxtail, Green ([8]; 125 g ai/ha): 98
- Plant response rating, Velvetleaf ([9]; 16 g ai/ha): 0
- Plant response rating, Velvetleaf ([9]; 31 g ai/ha): 0
- Plant response rating, Velvetleaf ([9]; 62 g ai/ha): 0
- Plant response rating, Velvetleaf ([9]; 125 g ai/ha): 0
- Plant response rating, Ducksalad ([10]; 62 g ai/ha): 40
- Plant response rating, Ducksalad ([10]; 250 g ai/ha): 40
- Plant response rating, Crabgrass, Large ([11]; 125 g ai/ha): 80
- Plant response rating, Crabgrass, Large ([11]; 500 g ai/ha): 90
- Plant response rating, Blackgrass ([12]; 16 g ai/ha): 10
- Plant response rating, Blackgrass ([12]; 31 g ai/ha): 85
- Plant response rating, Blackgrass ([12]; 62 g ai/ha): 90
- Plant response rating, Blackgrass ([12]; 125 g ai/ha): 100
- Plant response rating, Soybean (soybean (Glycine max); 16 g ai/ha): 0
- Plant response rating, Soybean (soybean (Glycine max); 31 g ai/ha): 0
- Plant response rating, Soybean (soybean (Glycine max); 62 g ai/ha): 0
- Plant response rating, Soybean (soybean (Glycine max); 125 g ai/ha): 0
- Plant response rating, Oat, Wild (wild oat (Avena fatua); 16 g ai/ha): 0
- Plant response rating, Oat, Wild (wild oat (Avena fatua); 31 g ai/ha): 20
- Plant response rating, Oat, Wild (wild oat (Avena fatua); 62 g ai/ha): 30
- Plant response rating, Oat, Wild (wild oat (Avena fatua); 125 g ai/ha): 60
- Plant response rating, Corn (corn (Zea mays); 16 g ai/ha): 0
- Plant response rating, Corn (corn (Zea mays); 31 g ai/ha): 0
- Plant response rating, Corn (corn (Zea mays); 62 g ai/ha): 0
- Plant response rating, Corn (corn (Zea mays); 125 g ai/ha): 0
- Plant response rating, Foxtail, Giant ([13]; 125 g ai/ha): 90
- Plant response rating, Foxtail, Giant ([13]; 500 g ai/ha): 90
- Plant response rating, Goosegrass ([14]; 16 g ai/ha): 85
- Plant response rating, Goosegrass ([14]; 31 g ai/ha): 95
- Plant response rating, Goosegrass ([14]; 62 g ai/ha): 100
- Plant response rating, Goosegrass ([14]; 125 g ai/ha): 100
- Plant response rating, Morningglory ([15]; 16 g ai/ha): 0
- Plant response rating, Morningglory ([15]; 31 g ai/ha): 0
- Plant response rating, Morningglory ([15]; 62 g ai/ha): 0
- Plant response rating, Morningglory ([15]; 125 g ai/ha): 0

SMILES: CC1(C)CC(S(=O)(=O)Cc2c(C(F)(F)Cl)nc3n(c2=O)CCC3)=NO1 [Compound 18]
- Plant response rating, Morningglory ([1]; 125 g ai/ha): 0
- Plant response rating, Morningglory ([1]; 500 g ai/ha): 50
- Plant response rating, Ragweed ([2]; 16 g ai/ha): 0
- Plant response rating, Ragweed ([2]; 31 g ai/ha): 0
- Plant response rating, Ragweed ([2]; 62 g ai/ha): 0
- Plant response rating, Ragweed ([2]; 125 g ai/ha): 0
- Plant response rating, Rice (rice (Oryza sativa); 31 g ai/ha): 0
- Plant response rating, Rice (rice (Oryza sativa); 62 g ai/ha): 0
- Plant response rating, Rice (rice (Oryza sativa); 125 g ai/ha): 0
- Plant response rating, Rice (rice (Oryza sativa); 250 g ai/ha): 0
- Plant response rating, Barnyardgrass ([3]; 125 g ai/ha): 80
- Plant response rating, Barnyardgrass ([3]; 500 g ai/ha): 80
- Plant response rating, Foxtail, Giant ([4]; 16 g ai/ha): 0
- Plant response rating, Foxtail, Giant ([4]; 31 g ai/ha): 80
- Plant response rating, Foxtail, Giant ([4]; 62 g ai/ha): 85
- Plant response rating, Foxtail, Giant ([4]; 125 g ai/ha): 98
- Plant response rating, Wheat ([5]; 125 g ai/ha): 0
- Plant response rating, Wheat ([5]; 500 g ai/ha): 30
- Plant response rating, Velvetleaf ([6]; 125 g ai/ha): 0
- Plant response rating, Velvetleaf ([6]; 500 g ai/ha): 60
- Plant response rating, Nutsedge, Yellow ([7]; 16 g ai/ha): 0
- Plant response rating, Nutsedge, Yellow ([7]; 31 g ai/ha): 0
- Plant response rating, Nutsedge, Yellow ([7]; 62 g ai/ha): 20
- Plant response rating, Nutsedge, Yellow ([7]; 125 g ai/ha): 45
- Plant response rating, Foxtail, Green ([8]; 16 g ai/ha): 30
- Plant response rating, Foxtail, Green ([8]; 31 g ai/ha): 80
- Plant response rating, Foxtail, Green ([8]; 62 g ai/ha): 98
- Plant response rating, Foxtail, Green ([8]; 125 g ai/ha): 98
- Plant response rating, Velvetleaf ([9]; 16 g ai/ha): 0
- Plant response rating, Velvetleaf ([9]; 31 g ai/ha): 0
- Plant response rating, Velvetleaf ([9]; 62 g ai/ha): 0
- Plant response rating, Velvetleaf ([9]; 125 g ai/ha): 0
- Plant response rating, Ducksalad ([10]; 31 g ai/ha): 0
- Plant response rating, Ducksalad ([10]; 62 g ai/ha): 0
- Plant response rating, Ducksalad ([10]; 125 g ai/ha): 0
- Plant response rating, Ducksalad ([10]; 250 g ai/ha): 0
- Plant response rating, Crabgrass, Large ([11]; 125 g ai/ha): 60
- Plant response rating, Crabgrass, Large ([11]; 500 g ai/ha): 90
- Plant response rating, Blackgrass ([12]; 16 g ai/ha): 0
- Plant response rating, Blackgrass ([12]; 31 g ai/ha): 0
- Plant response rating, Blackgrass ([12]; 62 g ai/ha): 10
- Plant response rating, Blackgrass ([12]; 125 g ai/ha): 98
- Plant response rating, Soybean (soybean (Glycine max); 16 g ai/ha): 0
- Plant response rating, Soybean (soybean (Glycine max); 31 g ai/ha): 0
- Plant response rating, Soybean (soybean (Glycine max); 62 g ai/ha): 0
- Plant response rating, Soybean (soybean (Glycine max); 125 g ai/ha): 0
- Plant response rating, Oat, Wild (wild oat (Avena fatua); 16 g ai/ha): 0
- Plant response rating, Oat, Wild (wild oat (Avena fatua); 31 g ai/ha): 0
- Plant response rating, Oat, Wild (wild oat (Avena fatua); 62 g ai/ha): 0
- Plant response rating, Oat, Wild (wild oat (Avena fatua); 125 g ai/ha): 45
- Plant response rating, Corn (corn (Zea mays); 16 g ai/ha): 0
- Plant response rating, Corn (corn (Zea mays); 31 g ai/ha): 0
- Plant response rating, Corn (corn (Zea mays); 62 g ai/ha): 0
- Plant response rating, Corn (corn (Zea mays); 125 g ai/ha): 0
- Plant response rating, Foxtail, Giant ([13]; 125 g ai/ha): 90
- Plant response rating, Foxtail, Giant ([13]; 500 g ai/ha): 100
- Plant response rating, Goosegrass ([14]; 16 g ai/ha): 0
- Plant response rating, Goosegrass ([14]; 31 g ai/ha): 95
- Plant response rating, Goosegrass ([14]; 62 g ai/ha): 98
- Plant response rating, Goosegrass ([14]; 125 g ai/ha): 98
- Plant response rating, Morningglory ([15]; 16 g ai/ha): 0
- Plant response rating, Morningglory ([15]; 31 g ai/ha): 0
- Plant response rating, Morningglory ([15]; 62 g ai/ha): 0
- Plant response rating, Morningglory ([15]; 125 g ai/ha): 45
